The values below are quoted from earlier work in US20100119622A1, “3H-BENZOOXAZOL-2-ONE MODULATORS OF D2 RECEPTOR AND/OR 5-HT1A RECEPTOR” (AUSPEX PHARMACEUTICALS, INC., priority 2008, published 2010).

The conditions of this data set: healthy subjects.

Consider `O=c1[nH]c2cccc(N3CCN(Cc4cccc(-c5ccccc5)c4)CC3)c2o1` [Bifeprunox, 7-[4-[(3-Phenylphenyl)methyl]piperazin-1-yl]-3H-benzooxazol-2-one], for which the elimination half-life is 14 h.
